Measurements reported in patent publication US6998144B2, “Method of improving sweetness delivery of sucralose” (McNeil-PPC, Inc., priority 1998, dated 2006).
Residues, ends and D or L forms follow the SMILES beside them.

Key:
[1] = test system: trained evaluators; assay: Determination of equally sweet levels in bottled water by a panel of six trained evaluators; format: in vivo; details: for equally sweet level: sweetener alone in bottled water
From the text: A panel of six trained evaluators determined equally sweet levels of sucralose, sucralose+DHB, aspartame, and aspartame+DHB, all in bottled water. […] Previous evaluations had shown 15 ppm DHB as optimal for taste alteration in sucralose products. Greater than 50 ppm DHB, in pure water solutions, has a slightly sweet taste and contributes to the total taste of the solution.

[2] = test system: trained panelists; assay: Sweetness time-intensity study of equally sweet solutions, 12 trained panelists; format: in vivo
Method: The data in Table 1 (“STIME”) in the Examples below correlate with the curves shown in this Figure. Imax: maximum intensity recorded. Tmax: first time that maximum intensity was recorded. Tend: last time that a non-zero intensity was recorded. Tdec50: last time that an intensity greater than 50% of Imax was recorded (i.e. the time at which the intensity had decreased to 50% of Imax). Tdec10: same as for Tdec50, but at 10% of Imax. Area: area under the curve. Tdecline: time interval from Tmax to Tdec10. The experiments giving rise to the data in this Figure and Table 1 are described in Example 1 below.
The data in Table 2 (“ATIME”) in the Examples below correlate with the curves shown in this Figure. These curve parameters, as shown in the Table, are defined as per those in FIG. 1. The experiments giving rise to the data in this Figure are described in Example 1 below.
For sweetness time-intensity studies, room temperature equally sweet solutions were presented to 12 trained panelists. The panelists had been screened for general sensory acuity and trained in general methods for sweetener assessment as well as time-intensity methods. […]
The data collected by the computer were read every second, for a total of 180 data points per tasting. Mean panelist response was calculated for each time data point. […]

Structure (SMILES) | equally sweet level [1] | sweetness delivery profile of aspartame ([2]; effect of DHB on aspartame) | length of time during which sucralose sweetness is perceived ([2]; effect of DHB on sucralose) | DHB level that has a slightly sweet taste and contributes to the total taste ([1]; pure water solutions) | DHB level optimal for taste alteration ([1]; sucralose products, previous evaluations)
OC[C@H]1O[C@H](O[C@]2(CCl)O[C@H](CCl)[C@@H](O)[C@@H]2O)[C@H](O)[C@@H](O)[C@H]1Cl [Sample 1, 1,6-dichloro-1,6-dideoxy-β-D-fructofuranosyl-4-chloro-4-deoxy-α-D-galactopyranoside, reference compound] | 200 ppm |  |  |  | 
COC(=O)[C@H](Cc1ccccc1)NC(=O)[C@@H](N)CC(=O)O [Sample 1, N-L-α-aspartyl-L-phenylalanine methyl ester, reference compound] (H-Asp-Phe-OMe) | 550 ppm |  |  |  | 
O=C(O)c1ccc(O)cc1O [DHB, 2,4-dihydroxybenzoic acid] |  | does not alter | significantly reduces | Greater than 50 ppm | 15 ppm
